# PMC7054317, “Mammalian ALKBH1 serves as an N^6-mA demethylase of unpairing DNA” (Cell Research, 2020)
# Columns and labels:
# [1] = biological target: T1, ALKBH1 in full length (mouse) (Mus musculus, UniProt P0CB42); test: isothermal titration calorimetry; assay type: binding
# T1 construct: full length, residues 1-389, N-terminal His-tag retained, E. coli BL21(DE3), modified pRSFDuet-1
# T1 sequence (P0CB42 1-389): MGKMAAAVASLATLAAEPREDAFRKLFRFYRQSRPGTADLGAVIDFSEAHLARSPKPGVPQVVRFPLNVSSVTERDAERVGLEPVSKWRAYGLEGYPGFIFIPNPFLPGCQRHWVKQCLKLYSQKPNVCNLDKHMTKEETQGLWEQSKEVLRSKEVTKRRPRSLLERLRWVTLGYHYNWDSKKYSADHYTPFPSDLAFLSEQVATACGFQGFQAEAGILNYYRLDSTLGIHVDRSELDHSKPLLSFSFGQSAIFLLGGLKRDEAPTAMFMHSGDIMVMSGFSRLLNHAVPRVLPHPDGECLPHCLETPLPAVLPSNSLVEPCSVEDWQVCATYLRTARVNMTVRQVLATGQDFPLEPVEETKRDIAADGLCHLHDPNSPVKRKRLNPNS
# ALKBH1_1–359 (mouse) = biological target: T2, ALKBH1_1–359 (mouse) (Mus musculus, UniProt P0CB42); test: isothermal titration calorimetry; assay type: binding
# T2 construct: gene Alkbh1; C-terminally truncated, residues 1-359, His-tag removed with PreScission protease, E. coli BL21(DE3); residues 20-358 modelled in the crystal
# T2 sequence (P0CB42 1-359): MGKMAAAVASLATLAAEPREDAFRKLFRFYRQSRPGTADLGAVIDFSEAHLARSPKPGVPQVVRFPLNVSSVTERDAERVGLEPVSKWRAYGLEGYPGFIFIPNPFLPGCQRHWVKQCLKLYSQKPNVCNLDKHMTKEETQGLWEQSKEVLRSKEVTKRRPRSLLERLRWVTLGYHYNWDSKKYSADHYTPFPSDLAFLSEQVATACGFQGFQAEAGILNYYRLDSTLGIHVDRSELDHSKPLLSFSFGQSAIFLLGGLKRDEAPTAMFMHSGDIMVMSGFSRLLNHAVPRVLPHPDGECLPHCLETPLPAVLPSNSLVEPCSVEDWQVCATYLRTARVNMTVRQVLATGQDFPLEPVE
structure (smiles),measurement,setting,value
O=C(O)CNC(=O)C(=O)O [NOG],Kd,[1],1.8 µM
same,Kd,ALKBH1_1–359 (mouse),2.5 µM
